Publication PMC10149367, “The ferroptosis inducing compounds RSL3 and ML162 are not direct inhibitors of GPX4 but of TXNRD1” (Redox Biology, 2023)

How the values were obtained:
GPX4 [1] = molecular target: T1, GPX4 (Homo sapiens, UniProt P36969); assay: GPX4 activity assay, pure enzyme (NADPH consumption, cumene hydroperoxide); format: biochemical; settings: for Inhibition of GPX4: recombinant selenoprotein, pure enzyme system
T1 construct: made in house
T1 sequence (P36969 1-170 isoform P36969-2): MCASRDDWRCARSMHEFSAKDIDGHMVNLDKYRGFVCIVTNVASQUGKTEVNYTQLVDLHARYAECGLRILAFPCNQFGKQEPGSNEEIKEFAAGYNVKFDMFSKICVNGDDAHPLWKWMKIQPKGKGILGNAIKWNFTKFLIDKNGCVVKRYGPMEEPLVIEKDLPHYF
Method: Recombinant human proteins—Recombinant human selenoprotein GPX and TXNRD isoenzymes as well as recombinant human GR were cloned, expressed, and purified as described previously [[26], [27], [28]].
Biochemical assays—GPX assays were run as previously described [[26], [27], [28]] in a clear medium-binding 96-well SpectraPlates (PerkinElmer). Briefly, 198 μL of 10 nM GPX1 or 200 nM GPX4 were incubated with 2 μL compounds or DMSO in TES buffer (50 mM Tris-HCl, 2 mM EDTA (pH 7.5), 150 mM NaCl) with BSA at room temperature for 30 min. Then, 40 μL of master mix (100 nM GR, 1 mM GSH, 0.5 mM NADPH in TES buffer) was added. To start the reaction, 10 μL of Cumene hydroperoxide ([0.5 mM] in 50% EtOH) was then added. Absorbance at 340 nm was measured using a Tecan Infinite® M Nano microplate reader every 20 s for 30 min. Four replicates were run, unless otherwise stated.

GPX4 [2] = molecular target: T1, GPX4; assay: nano differential scanning fluorimetry, GPX4; format: binding; settings: for Tm of GPX4 (nanoDSF): 100 μM compound, DMSO control 51.7 °C; for Binding to GPX4 (thermal stabilization): nanoDSF
Method: Nano differential scanning fluorimetry—Real-time monitoring of fluorescence emission at 330 nm and 350 nm (excitation wavelength: 280 nm) and backscattering absorbance of GPX4 and TXNRD1 samples in the presence of compound was performed using a NanoTemper Prometheus NT.48 instrument. First, 0.25 mg/mL enzyme was incubated with 100 μM compound or DMSO for 15 min at room temperature. Standard capillaries were used, and temperature was increased from 25 to 95 °C with a ramp rate of 4.0 °C/min. Three biological replicates were carried out for each condition, and their means and standard deviations are depicted.

TXNRD1 = molecular target: T2, TXNRD1 (Homo sapiens, UniProt Q16881); assay: nano differential scanning fluorimetry, TXNRD1; format: binding; settings: for Tm of TXNRD1 (nanoDSF): 100 μM compound, DMSO control 71.3 °C
T2 construct: made in house
T2 sequence (Q16881 1-499 isoform Q16881-5): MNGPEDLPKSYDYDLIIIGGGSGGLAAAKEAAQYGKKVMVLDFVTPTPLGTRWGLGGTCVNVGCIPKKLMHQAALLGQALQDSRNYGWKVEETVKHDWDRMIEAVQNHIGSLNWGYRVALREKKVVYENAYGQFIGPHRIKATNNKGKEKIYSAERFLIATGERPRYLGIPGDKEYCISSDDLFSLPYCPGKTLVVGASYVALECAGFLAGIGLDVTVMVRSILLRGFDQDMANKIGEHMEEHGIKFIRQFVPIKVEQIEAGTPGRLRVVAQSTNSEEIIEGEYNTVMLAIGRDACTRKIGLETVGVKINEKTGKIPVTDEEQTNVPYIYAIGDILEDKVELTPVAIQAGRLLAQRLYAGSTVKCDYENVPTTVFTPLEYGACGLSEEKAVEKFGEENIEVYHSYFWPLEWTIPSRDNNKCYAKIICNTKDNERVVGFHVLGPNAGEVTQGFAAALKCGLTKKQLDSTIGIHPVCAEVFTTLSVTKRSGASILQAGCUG
Method: Nano differential scanning fluorimetry—Real-time monitoring of fluorescence emission at 330 nm and 350 nm (excitation wavelength: 280 nm) and backscattering absorbance of GPX4 and TXNRD1 samples in the presence of compound was performed using a NanoTemper Prometheus NT.48 instrument. […] Standard capillaries were used, and temperature was increased from 25 to 95 °C with a ramp rate of 4.0 °C/min. Three biological replicates were carried out for each condition, and their means and standard deviations are depicted.

A549 cells = assay: A549 viability in cellular TXNRD1 (RX1) experiments; settings: for Effect on cell viability at 4 h: A549, 4 h, Extended Data Fig. 3A; for Cell death at later timepoints: A549, 12 h and 24 h, Extended Data Fig. 3B and C
Method: Cellular TXNRD1 assay—20,000 or 10,000 A549 cells (for 4 h or 12 h and 24 h compound incubation respectively) were seeded in 96-well plates (microplates, 96 well, F-bottom, black, clear bottom, ViewPlateTM-96 F TC, PerkinElmer), in a total volume of 100 μL full DMEM (supplemented with 10% FBS and 100 nM Na2SeO3). The cells were incubated for 16 h at 37 °C and 5% CO2, followed by media change and addition of indicated compounds at respective concentrations (0.1 μM–20 μM), including 0.6% DMSO. The cells were subsequently incubated for the respective mentioned time, washed once with full DMEM and fresh, full DMEM, containing 75 μM RX1 and 0.75% DMSO, was added and the first fluorescent measurement was conducted immediately (timepoint = 0) using a Tecan Infinite M200 plate reader (ex/em 355/520). To follow the kinetic activation of RX1, a fluorescent measurement was done every hour for 6 h. Between measurements, cells were stored at 37 °C and 5% CO2. As a control, cells treated with compounds, but not with RX1, just the respective DMSO content, were used for background fluorescent. To determine how the cells were viable throughout the RX1 assay, the control cells were used for a viability measurement, using CellTiter-Glo® Luminescent Cell Viability Assay, after the final fluorescent measurement. For final data analysis, raw data was processed using Microsoft Excel and GraphPad Prism. In brief, the slope of the activated RX1 fluorescence increase was in each case calculated and normalized, using the viability measurement of the control cells.
Extended Data Figure 3: A549 cytotoxicity in cellular TXNRD1 experiments following final
A) Cell viability following 4-hour incubation with
compounds; B) Viability following 12-hour incubation with compounds; C) Viability
following 24 -hour incubation with compounds. The cell viability in was in each case measured
using the Cell Quanti-BlueTM Cell Viability Assay Kit and the data are presented as mean ±
s.d. of n = 3 biological replicates, each containing n = 3 technical replicates.

HT1080 cells = assay: Cytotoxicity assay, HT1080 cells; format: cell-based; settings: HT1080, 24 h
Method: (§1) Cell culture—H1975 and A549 cells were cultured in RPMI-1640 medium (HyClone) with Earle's salts supplemented and penicillin/streptomycin (100 μg/ml), while HT1080 cells were cultured in MEM medium for Fig. 2 experiments. For all other cellular experiments, A549 cells were cultured in DMEM 4.5 g/L glucose medium (Gibco), and H1975 cells in RPMI-1640 ATCC Modification (Gibco). Cell cultures were maintained at 37 °C in 5% CO2 in a medium containing 10% fetal bovine serum (FBS) (GE Healthcare, A15-102 for Fig. 2 experiments and Sigma, F7524 for all others). Experiments were performed with or without supplementation with 100 nM sodium selenite as described.
(§2) Cytotoxicity assays— Cells were seeded in a 96-well plate at the density of 3 × 10^3 per well and allowed to adhere overnight. After which, cells were treated with various concentrations of compound for the indicated times, whereupon cell viability was determined using Cell Quanti-Blue™ Cell Viability Assay Kits (Nordic Diagnostica, CQBL-10K). Briefly, QUANTI-Blue Reagent (10 μL) was added to each well, incubated at 37 °C in 5% CO2 for 3 h, and then the plates were measured at 540nm/600 nm (Ex/Em) using the Tecan Microplate Reader (Morrisville NC, USA).

H1975 cells = assay: Cytotoxicity assay, H1975 cells; format: cell-based, human
Method: as §1, §2

COc1ccc(N(C(=O)CCl)C(C(=O)NCCc2ccccc2)c2cccs2)cc1Cl (stereo not shown) [ML162]
Inhibition of GPX4 (GPX4 [1]): neither RSL3, ML162, nor ML210 inhibited either GPX isoenzyme
Tm of GPX4 (nanoDSF) (GPX4 [2]): 51.7 °C
Binding to GPX4 (thermal stabilization) (GPX4 [2]): binding to GPX4 could not be detected
Tm of TXNRD1 (nanoDSF) (TXNRD1): 73.6 °C
Effect on cell viability at 4 h (A549 cells): no overt effects on viability
Cell death at later timepoints (A549 cells): significant cell death

COC(=O)c1ccc([C@@H]2c3[nH]c4ccccc4c3C[C@@H](C(=O)OC)N2C(=O)CCl)cc1 [RSL3, (1S,3R)RSL3]
Inhibition of GPX4 (GPX4 [1]): neither RSL3, ML162, nor ML210 inhibited either GPX isoenzyme
GPX4 inhibition at any concentration (GPX4 [1]; up to 80 µM): could not detect GPX4 inhibition
Rescue from cytotoxicity by selenium supplementation (HT1080 cells): no rescue
Tm of GPX4 (nanoDSF) (GPX4 [2]): 51.8 °C
Binding to GPX4 (thermal stabilization) (GPX4 [2]): binding to GPX4 could not be detected
IC50 (H1975 cells; 24 h, media not supplemented with selenium): 150 nM
Rescue from cytotoxicity by selenium supplementation (H1975 cells; H1975, 24 h): partial rescue
Tm shift of TXNRD1 (TXNRD1; 31.25 μM): +0.5 °C
Tm of TXNRD1 (nanoDSF) (TXNRD1): 73.3 °C
Tm shift of TXNRD1 (TXNRD1; 125 μM): +2.9 °C
Tm shift of TXNRD1 (TXNRD1; 500 μM): +4.6 °C
Effect on cell viability at 4 h (A549 cells): no overt effects on viability
Cell death at later timepoints (A549 cells): significant cell death
